This note sets out measurements from EP4389751A1, “HETEROCYCLIC COMPOUNDS AND USES THEREOF” (Kumquat Biosciences Inc., priority 2021, dated 2024).

In the assay the target is T1, K-Ras G12S (Homo sapiens, UniProt P01116, G12S).
T1 construct: made in house; host or cells: E. coli (e.g., BL21 (DE3))
The assay can be described thus: HTRF assay of the K-Ras / SOS1 interaction. It counts as biochemical. The settings on record: IC50 (against K-Ras G12D) to IC50 (against K-Ras G12S). From the text:
This assay can be also used to assess a selective inhibition or reduction of signaling output of a mutant Ras protein relative to a wildtype, or relative to a different mutant Ras protein. For example, the equilibrium interaction of wildtype Kras or K-Ras mutant (e.g., wildtype or a mutant thereof including those mentioned in Example 6) with SOS1 (e.g., hSOS1) can be assessed as a proxy or an indication for a subject compound's ability to bind and inhibit Ras protein. HTRF assay detects from (i) a fluorescence resonance energy transfer (FRET) donor (e.g., antiGST-Europium) that is bound to GST-tagged K-Ras mutant to (ii) a FRET acceptor (e.g., anti-6His-XL665) bound to a His-tagged hSOS 1.
The assay buffer can contain ~5 mM HEPES pH 7.4, -150 mM NaCI, - 1 mM DTT, 0.05% BSA and 0.0025% (v/v) Igepal. A Ras working solution is prepared in an assay buffer containing typically a suitable amount of the protein construct (e.g., GST-tagged K-Ras mutant) and the FRET donor (e.g., antiGST-Eu(K) from Cisbio, France). A SOS1 working solution is prepared in an assay buffer containing suitable amount of the protein construct (e.g., His-hSOS1) and the FRET acceptor (e.g., anti-6His-XL665 from Cisbio, France). A suitable amount of the protein construct will depend on the range of activity or range of IC50 values being detected or under investigation. For detecting IC50 within a range of 500 nM, the protein constructs of the same range of molarity can be utilized.
A fixed volume of DMSO with or without test compound is transferred into a 384-well plate. Ras working solution is added to all wells of the test plate. SOS1 working solution is added to all wells except for those that are subsequently filled the inhibitor control solution. Upon incubation for about 10 minutes or longer, the fluorescence is measured with a M1000Pro plate reader (Tecan) using HTRF detection (excitation 337nm, emission 1 : 620nm, emission 2: 665nm). Compounds are tested in duplicates at different concentrations (for example, 10 µM, 2.5 µM, 0.63 µM, 0.16 µM, 0.04 µM, 0.01 µM test compound). The ratiometric data (i.e., emission 2 divided by emission 1) is used to calculate IC50 values against Ras using GraphPad Prism (GraphPad software). Following this general procedure, samples were tested with or without a subject compound disclosed herein including compounds exemplified in Table 3 to assess their abilities to inhibit K-Ras G12S relative to another mutant (e.g., K-Ras G12D). Signaling output measured in terms of IC50 values can be obtained, a ratio of IC50 against one mutant relative to another mutant can be calculated. For instance, a selective reduction of K-Ras G12S signaling output can be evidenced by a ratio greater than one. In particular, a selective reduction of K-Ras G12S signaling relative to K-Ras G12D signaling is evidenced as the ratio of IC50 (against K-Ras G12D) to IC50 (against K-Ras G12S) is greater than 1. […]
On the technique in general: Time-resolved FRET reads energy transfer from a long-lived donor to a nearby acceptor.

Structures are written as SMILES.

T1 sequence (P01116 1-188 isoform P01116-2 G12S): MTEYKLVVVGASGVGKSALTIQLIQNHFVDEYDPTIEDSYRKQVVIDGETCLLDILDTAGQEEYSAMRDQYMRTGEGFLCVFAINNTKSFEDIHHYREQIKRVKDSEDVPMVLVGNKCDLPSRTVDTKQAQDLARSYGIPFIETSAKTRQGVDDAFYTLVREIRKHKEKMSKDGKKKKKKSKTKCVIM

As to `C[C@H](Oc1nc(OC2CCN(C(=O)Nc3nccs3)C2)c2cc(Cl)c(-c3ccc(F)c4sc(N)c(C#N)c34)c(F)c2n1)[C@@H]1CCCN1C` (stereo partly drawn) [Compound A237, 3-((7-(2-amino-3-cyano-7-fluorobenzo[b]thiophen-4-yl)-6-chloro-8-fluoro-2-((S)-1-((S)-1-methylpyrrolidin-2-yl)ethoxy)quinazolin-4-yl)oxy)-N-(thiazol-2-yl)pyrrolidine-1-carboxamide], the “Ratio of IC50 KRAS G12D vs. IC50 KRAS G12S” value (shortened to “Ratio”) is “A (A: indicates that the ratio of IC50 against KrasG12D vs. IC50 against KrasG12S is 1-fold or greater)”.

On to `Cc1nc(C(C)C)nn1C(=O)N1CC2(CCCN(c3nc(OC[C@@]45CCCN4C[C@H](F)C5)nc4c(F)c(-c5ccc(F)c6sc(N)c(C#N)c56)c(Cl)cc34)C2)C1` [Compound A240, 2-amino-4-(6-chloro-8-fluoro-2-(((2R,7aS)-2-fluorotetrahydro-1H-pyrrolizin-7 a(5H)-yl)methoxy)-4-(2-(3-isopropyl-5-methyl-1H-1,2,4-triazole-1-carbonyl)-2,6-diazaspiro[3.5]nonan-6-yl)quinazolin-7-yl)-7-fluorobenzo[b]thiophene-3-carbonitrile], for which the “Ratio” value is reported as “A (A: indicates that the ratio of IC50 against KrasG12D vs. IC50 against KrasG12S is 1-fold or greater)”.

For `CO[C@@H]1CN(C)C[C@H]1Oc1nc(N2CC3CCC(C2)N3C(=O)n2cc(C#N)cn2)c2cc(Cl)c(-c3ccc(F)c4sc(N)nc34)c(F)c2n1` [Compound A248, 1-(3-(7-(2-amino-7-fluorobenzo[d]thiazol-4-yl)-6-chloro-8-fluoro-2-(((3R,4R)-4-methoxy-1-methylpyrrolidin-3-yl)oxy)quinazolin-4-yl)-3,8-diazabicyclo[3.2.1]octane-8-carbonyl)-1H-pyrazole-4-carbonitrile], the “Ratio” value is recorded as “A (A: indicates that the ratio of IC50 against KrasG12D vs. IC50 against KrasG12S is 1-fold or greater)”.

With `Nc1nc2c(-c3c(Cl)cc4c(NC5CCN(C(=O)n6cccn6)CC5)nc(OC[C@@]56CCCN5C[C@H](F)C6)nc4c3F)ccc(F)c2s1` [Compound A254, (4-((7-(2-amino-7-fluorobenzo[d]thiazol-4-yl)-6-chloro-8-fluoro-2-(((2R,7aS)-2-fluorotetrahydro-1H-pyrrolizin-7a(5H)-yl)methoxy)quinazolin-4-yl)amino)piperidin-1-yl)(1H-pyrazol-1-yl)methanone], the “Ratio” value is listed as “A (A: indicates that the ratio of IC50 against KrasG12D vs. IC50 against KrasG12S is 1-fold or greater)”.

In the case of `CN1CCC[C@H]1COc1nc(N2CC3CCC(C2)N3C(=O)n2cc(C#N)cn2)c2cc(Cl)c(-c3ccc(F)c4sc(N)nc34)c(F)c2n1` [Compound A259, 1-(3-(7-(2-amino-7-fluorobenzo[d]thiazol-4-yl)-6-chloro-8-fluoro-2-(((S)-1-methylpyrrolidin-2-yl)methoxy)quinazolin-4-yl)-3,8-diazabicyclo[3.2.1]octane-8-carbonyl)-1H-pyrazole-4-carbonitrile], the “Ratio” value is listed as “A (A: indicates that the ratio of IC50 against KrasG12D vs. IC50 against KrasG12S is 1-fold or greater)”.

For the compound `Nc1nc2c(-c3c(Cl)cc4c(NCCN5CCN(C(=O)n6cncn6)CC5=O)nc(OC[C@@]56CCCN5C[C@H](F)C6)nc4c3F)ccc(F)c2s1` [Compound A261, 1-(2-((7-(2-amino-7-fluorobenzo[d]thiazol-4-yl)-6-chloro-8-fluoro-2-(((2R,7aS)-2-fluorotetrahydro-1H-pyrrolizin-7a(5H)-yl)methoxy)quinazolin-4-yl)amino)ethyl)-4-(1H-1,2,4-triazole-1-carbonyl)piperazin-2-one], the “Ratio” value is “A (A: indicates that the ratio of IC50 against KrasG12D vs. IC50 against KrasG12S is 1-fold or greater)”.

As to `Nc1nc2c(-c3c(Cl)cc4c(NC5CCN(C(=O)Nc6ncccn6)CC5)nc(OC[C@@]56CCCN5C[C@H](F)C6)nc4c3F)ccc(F)c2s1` [Compound A262, 4-((7-(2-amino-7-fluorobenzo[d]thiazol-4-yl)-6-chloro-8-fluoro-2-(((2R,7aS)-2-fluorotetrahydro-1H-pyrrolizin-7a(5H)-yl)methoxy)quinazolin-4-yl)amino)-N-(pyrimidin-2-yl)piperidine-1-carboxamide], the “Ratio” value was “A (A: indicates that the ratio of IC50 against KrasG12D vs. IC50 against KrasG12S is 1-fold or greater)”.

Turning to `Nc1nc2c(-c3c(Cl)cc4c(N5CCN(C6CN(C(=O)n7cncn7)C6)CC5)nc(OC[C@@]56CCCN5C[C@H](F)C6)nc4c3F)ccc(F)c2s1` [Compound A267, (3-(4-(7-(2-amino-7-fluorobenzo[d]thiazol-4-yl)-6-chloro-8-fluoro-2-(((2R,7aS)-2-fluorotetrahydro-1H-pyrrolizin-7a(5H)-yl)methoxy)quinazolm-4-yl)piperazin-1-yl)azetidin-1-yl)(1H-1,2,4-triazol-1-yl)methanone], the “Ratio” value is on record as “A (A: indicates that the ratio of IC50 against KrasG12D vs. IC50 against KrasG12S is 1-fold or greater)”.

`N#Cc1ccn(C(=O)N2CC3CCC(C2)N3c2nc(OC[C@@]34CCCN3C[C@H](F)C4)nc3c(F)c(-c4ccc(F)c5sc(N)nc45)c(Cl)cc23)c1` [Compound A290, 1-(8-(7-(2-amino-7-fluorobenzo[d]thiazol-4-yl)-6-chloro-8-fluoro-2-(((2R,7aS)-2-fluorotetrahydro-1H-pyrrolizin-7a(5H)-yl)methoxy)quinazolin-4-yl)-3,8-diazabicyclo[3.2. 1]octane-3-carbonyl)-1H-pyrrole-3-carbonitrile]: the “Ratio” value is on record as “A (A: indicates that the ratio of IC50 against KrasG12D vs. IC50 against KrasG12S is 1-fold or greater)”.

On to `Nc1nc2c(-c3c(Cl)cc4c(N5CC6(CCN(C(=O)n7cncn7)CC6)C5)nc(OC[C@@]56CCCN5C[C@H](F)C6)nc4c3F)ccc(F)c2s1` [Compound A292, (2-(7-(2-amino-7-fluorobenzo[d]thiazol-4-yl)-6-chloro-8-fluoro-2-(((2R,7aS)-2-fluorotetrahydro-1H-pyrrolizin-7a(5H)-yl)methoxy)quinazolin-4-yl)-2,7-diazaspiro[3.5]nonan-7-yl)(1H-1,2,4-triazol-1-yl)methanone], for which the “Ratio” value was “A (A: indicates that the ratio of IC50 against KrasG12D vs. IC50 against KrasG12S is 1-fold or greater)”.

In the case of `Nc1nc2c(-c3c(Cl)cc4c(OC5CC6CN(C(=O)n7cncn7)CC65)nc(OC[C@@]56CCCN5C[C@H](F)C6)nc4c3F)ccc(F)c2s1` (stereo partly drawn) [Compound A297, (6-((7-(2-amino-7-fluorobenzo[d]thiazol-4-yl)-6-chloro-8-fluoro-2-(((2R,7aS)-2-fluorotetrahydro-1H-pyrrolizin-7a(5H)-yl)methoxy)quinazolin-4-yl)oxy)-3-azabicyclo[3.2.0]heptan-3-yl)(1H-1,2,4-triazol-1-yl)methanone], the “Ratio” value is “A (A: indicates that the ratio of IC50 against KrasG12D vs. IC50 against KrasG12S is 1-fold or greater)”.

Turning to `Nc1nc2c(-c3c(Cl)cc4c(NC5C6CN(C(=O)n7cncn7)CC65)nc(OC[C@@]56CCCN5C[C@H](F)C6)nc4c3F)ccc(F)c2s1` (stereo partly drawn) [Compound A299, (6-((7-(2-amino-7-fluorobenzo[d]thiazol-4-yl)-6-chloro-8-fluoro-2-(((2R,7aS)-2-fluorotetrahydro-1H-pyrrolizin-7a(5H)-yl)methoxy)quinazolin-4-yl)amino)-3-azabicyclo[3.1.0]hexan-3-yl)(1H-1,2,4-triazol-1-yl)methanone], the “Ratio” value is “A (A: indicates that the ratio of IC50 against KrasG12D vs. IC50 against KrasG12S is 1-fold or greater)”.
